≈ marks a conversion by molar mass, not a printed value.
Experiments:
Format in all cases: cell-based
Candida = test: In vitro MIC, NCCLS M27A, Candida species; set-up: MIC, Candida albicans 1.549 / MIC, Candida albicans Y-01-19 / MIC, C. krusei 766-1 / MIC, C. krusei Q. C / MIC, Candida tropicalis ATCC / MIC, C. glabrata 90030: unit not given beside the values; MIC, Candida albicans A 26 / MIC, C. parapsilosis Q. C.: unit not given here; conditions: for MIC, C. glabrata 90030: C. glabrata strain 90030; for MIC, C. krusei 766-1: C. krusei strain 766-1; for MIC, C. krusei Q. C: C. krusei strain Q. C; for MIC, C. parapsilosis Q. C.: C. parapsilosis strain Q. C.; for MIC, Candida albicans 1.549: Candida albicans strain 1.549; for MIC, Candida albicans A 26: Candida albicans strain A 26; for MIC, Candida albicans Y-01-19: Candida albicans strain Y-01-19
Cryptococcus neoformans = test: In vitro MIC, NCCLS M27A, Cryptococcus neoformans; set-up: MIC, C. neoformans I: unit not given beside the values; MIC, C. neoformans M 106: unit not given here; conditions: for MIC, C. neoformans I: C. neoformans strain I; for MIC, C. neoformans M 106: C. neoformans strain M 106
A. fumigatus s 1008 = test: In vitro MIC, NCCLS M38P broth method (RPMI 1640/MOPS pH7), Aspergillus fumigatus; conditions: A. fumigatus strain 1008
Histoplasma capsulatum = system: Histoplasma capsulatum

Row | Compound | MIC, C. glabrata 90030 (Candida) | MIC, C. krusei 766-1 (Candida) | MIC, C. krusei Q. C (Candida) | MIC, C. parapsilosis Q. C. (Candida) | MIC, Candida albicans 1.549 (Candida) | MIC, Candida albicans A 26 (Candida) | MIC, Candida albicans Y-01-19 (Candida) | MIC, Candida tropicalis ATCC (Candida) | MIC, C. neoformans I (Cryptococcus neoformans) | MIC, C. neoformans M 106 (Cryptococcus neoformans) | MIC, A. fumigatus 1008 (A. fumigatus s 1008) | MIC, H. capsulatum (Histoplasma capsulatum)
1 | C[C@@H](n1ncn(-c2ccc(N3CCN(c4cccc(C(F)(F)F)c4)CC3)cc2)c1=O)[C@](O)(Cn1cncn1)c1ccc(F)cc1F [Compound 9, 2-{[1R2R/1S2S]-2-(2,4-Difluorophenyl)-2-hydroxy-1-methyl-3-(1H-1,2,4-triazol-1-yl)propyl}-4-{4-[4-(3-trifluoromethylphenyl)-1-piperazinyl]phenyl}-3-(2H,4H)-1,2,4-triazolone] | 0.25 | 0.50 | 0.12 | <0.03 | 0.25 | <0.03 | 0.25 | <0.03 | <0.03 | <0.03 | 0.50 | 0.06 µg/mL (≈ 0.0937 µM)
2 | C[C@@H](n1ncn(-c2ccc(N3CCN(c4cccc(C(F)(F)F)c4)CC3)cc2)c1=O)[C@@](O)(Cn1cncn1)c1ccc(F)cc1F [Compound 10, 2-{[1R2S/1S2R]-2-(2,4-Difluorophenyl)-2-hydroxy-1-methyl-3-(1H-1,2,4-triazol-1-yl)propyl}-4-{4-[4-(3-trifluoromethylphenyl)-1-piperazinyl]phenyl}-3-(2H,4H)-1,2,4-triazolone] | 0.50 | >16 | 1.00 | <0.03 | 0.50 | <0.03 | 1.00 | <0.03 | 0.06 | <0.03 | >16 | 0.06 µg/mL (≈ 0.0937 µM)
3 | C[C@@H](n1ncn(-c2ccc(N3CCN(c4ccc(F)cc4)CC3)cc2)c1=O)[C@](O)(Cn1cncn1)c1ccc(F)cc1F [Compound 11, 2-{[1R2R/1S2S]-2-(2,4-Difluorophenyl)-2-hydroxy-1-methyl-3-(1H-1,2,4-triazol-1-yl)propyl}-4-{4-[4-(4-fluorophenyl)-1-piperazinyl]phenyl}-3-(2H,4H)-1,2,4-triazolone] | 0.25 | 0.25 | 0.12 | <0.03 | 0.06 | <0.03 | 0.12 | <0.03 | <0.03 | <0.03 | 0.25 | < 0.03 µg/mL
4 | C[C@@H](n1ncn(-c2ccc(N3CCN(c4ccc(F)cc4)CC3)cc2)c1=O)[C@@](O)(Cn1cncn1)c1ccc(F)cc1F [Compound 12, 2-{[1R2S/1S2R]-2-(2,4-Difluorophenyl)-2-hydroxy-1-methyl-3-(1H-1,2,4-triazol-1-yl)propyl}-4-{4-[4-(4-fluorophenyl)-1-piperazinyl]phenyl}-3-(2H,4H)-1,2,4-triazolone] | 4.00 | >16 | 8.00 | 0.06 | 4.00 | <0.03 | 8.00 | <0.03 | 0.12 | 0.25 | >16 | < 0.03 µg/mL
5 | COc1ccc(N2CCN(c3ccc(-n4cnn([C@H](C)[C@](O)(Cn5cncn5)c5ccc(F)cc5F)c4=O)cc3)CC2)cc1 [Compound 13, 2-{[1R2R/1S2S]-2-(2,4-Difluorophenyl)-2-hydroxy-1-methyl-3-(1H-1,2,4-triazol-1-yl)propyl}-4-{4-[4-(4-methoxyphenyl)-1-piperazinyl]phenyl}-3-(2H,4H)-1,2,4-triazolone] | 0.50 | 0.50 | 0.12 | <0.03 | 0.12 | <0.03 | 0.25 | <0.03 | <0.03 | <0.03 | 0.25 | 0.06 µg/mL (≈ 0.0996 µM)
6 | COc1ccc(N2CCN(c3ccc(-n4cnn([C@H](C)[C@@](O)(Cn5cncn5)c5ccc(F)cc5F)c4=O)cc3)CC2)cc1 [Compound 14, 2-{[1R2S/1S2R]-2-(2,4-Difluorophenyl)-2-hydroxy-1-methyl-3-(1H-1,2,4-triazol-1-yl)propyl}-4-{4-[4-(4-methoxyphenyl)-1-piperazinyl]phenyl}-3-(2H,4H)-1,2,4-triazolone] | 2.00 | >16 | 16.0 | 0.06 | 2.00 | <0.03 | 2.00 | <0.03 | 0.50 | <0.03 | >16 | 0.12 µg/mL (≈ 0.199 µM)
7 | C[C@@H](n1ncn(-c2ccc(N3CCN(c4ccc(F)c(Cl)c4)CC3)cc2)c1=O)[C@](O)(Cn1cncn1)c1ccc(F)cc1F [Compound 15, 2-{[1R2R/1S2S]-2-(2,4-Difluorophenyl)-2-hydroxy-1-methyl-3-(1H-1,2,4-triazol-1-yl)propyl}-4-{4-[4-(3-chloro-4-fluorophenyl)-1-piperazinyl]phenyl}-3-(2H,4H)-1,2,4-triazolone] | 0.50 | 0.50 | 0.25 | <0.03 | 1.00 | <0.03 | 0.25 | <0.03 | <0.03 | <0.03 | 0.50 | 0.12 µg/mL (≈ 0.192 µM)
8 | C[C@@H](n1ncn(-c2ccc(N3CCN(c4ccc(F)c(Cl)c4)CC3)cc2)c1=O)[C@@](O)(Cn1cncn1)c1ccc(F)cc1F [Compound 16, 2-{[1R2S/1S2R]-2-(2,4-Difluorophenyl)-2-hydroxy-1-methyl-3-(1H-1,2,4-triazol-1-yl)propyl}-4-{4-[4-(3-chloro-4-fluorophenyl)-1-piperazinyl]phenyl}-3-(2H,4H)-1,2,4-triazolone] | 0.50 | >16 | 1.00 | 0.06 | 4.00 | <0.03 | 1.00 | <0.03 | 0.12 | 0.12 | >16 | 0.5 µg/mL (≈ 0.8 µM)
9 | Cc1ccc(N2CCN(c3ccc(-n4cnn([C@H](C)[C@](O)(Cn5cncn5)c5ccc(F)cc5F)c4=O)cc3)CC2)cc1Cl [Compound 17, 2-{[1R2R/1S2S]-2-(2,4-Difluorophenyl)-2-hydroxy-1-methyl-3-(1H-1,2,4-triazol-1-yl)propyl}-4-{4-[4-(3-chloro-4-methylphenyl)-1-piperazinyl]phenyl}-3-(2H,4H)-1,2,4-triazolone] | 0.50 | 0.50 | 0.50 | <0.03 | 0.25 | <0.03 | 0.25 | <0.03 | <0.03 | <0.03 | 0.25 | 0.25 µg/mL (≈ 0.403 µM)
10 | Cc1ccc(N2CCN(c3ccc(-n4cnn([C@H](C)[C@@](O)(Cn5cncn5)c5ccc(F)cc5F)c4=O)cc3)CC2)cc1Cl [Compound 18, 2-{[1R2S/1S2R]-2-(2,4-Difluorophenyl)-2-hydroxy-1-methyl-3-(1H-1,2,4-triazol-1-yl)propyl}-4-{4-[4-(3-chloro-4-methylphenyl)-1-piperazinyl]phenyl}-3-(2H,4H)-1,2,4-triazolone] | 1.00 | >16 | 2.00 | 0.25 | 2.00 | <0.03 | 1.00 | <0.03 | 0.12 | 0.25 | >16 | 0.25 µg/mL (≈ 0.403 µM)
11 | Cc1ccc(N2CCN(c3ccc(-n4cnn([C@H](C)[C@](O)(Cn5cncn5)c5ccc(F)cc5F)c4=O)cc3)CC2)c(C)c1 [Compound 19, 2-{[1R2R/1S2S]-2-(2,4-Difluorophenyl)-2-hydroxy-1-methyl-3-(1H-1,2,4-triazol-1-yl)propyl}-4-{4-[4-(2,4-dimethylphenyl)-1-piperazinyl]phenyl}-3-(2H,4H)-1,2,4-triazolone] | >16 | >16 | 0.50 | 0.06 | 1.00 | <0.03 | 1.00 | <0.03 | <0.03 | <0.03 | >16 | 0.5 µg/mL (≈ 0.832 µM)

Reference: US6670363B1, “Azole compounds as therapeutic agents for fungal infections” (Ranbaxy Laboratories Limited, priority 2000, dated 2003)
